Results reported in US11279687B2, “Compounds and compositions for the inhibition of NAMPT” (Valo Health, Inc., priority 2010, dated 2022).
“Also recorded” adds a separate entry of the source.

Tests used:
A2780 cells [1] = experiment: In-vitro cell proliferation assay (SRB), A2780 cells; format: cell-based; conditions: Homo sapiens, A2780, 72 h, A2780 cells, 72 hours, SRB; read-out: A2780 IC50;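 note: viable cell number read as SRB absorbance, background from media-only wells subtracted, IC50 interpolated from percent inhibition at two bracketing compound concentrations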
NAMPT = NAMPT (Homo sapiens (Human), UniProt P43490); experiment: NAMPT biochemical inhibition assay (NMN quantified by mass spectrometry); conditions: NAMPT biochemical inhibition; read-out: Biochem IC50
NAMPT, sequence (P43490 whole entry): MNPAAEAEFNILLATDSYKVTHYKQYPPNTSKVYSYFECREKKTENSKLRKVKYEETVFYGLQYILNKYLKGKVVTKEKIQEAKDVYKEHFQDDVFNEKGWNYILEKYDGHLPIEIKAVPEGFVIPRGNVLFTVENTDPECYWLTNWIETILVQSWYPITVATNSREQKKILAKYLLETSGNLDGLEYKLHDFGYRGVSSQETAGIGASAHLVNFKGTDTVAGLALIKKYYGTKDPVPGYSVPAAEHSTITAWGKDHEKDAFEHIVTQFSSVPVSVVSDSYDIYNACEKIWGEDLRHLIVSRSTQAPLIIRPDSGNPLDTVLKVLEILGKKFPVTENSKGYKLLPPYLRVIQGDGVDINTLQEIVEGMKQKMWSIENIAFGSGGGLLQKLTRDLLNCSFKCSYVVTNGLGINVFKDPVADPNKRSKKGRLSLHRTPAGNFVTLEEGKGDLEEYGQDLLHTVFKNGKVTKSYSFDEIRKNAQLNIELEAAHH

A2780 cells [2] = experiment: A2780 xenograft study in mice; format: in vivo, C.B-17-Igh-1b-Prkdc^scid mice; conditions: female SCID mice, s.c. A2780 tumors, p.o. BID for 5 or 10 days, dose selected from MTD study
Protocol: C.B-17-Igh-1b-Prkdc^scid mice (female) were injected s.c. with 5×10^6 A2780 cells (NCI) in the left flank. 10-12 days later when tumors reached 100-200 mm3 in size, mice were randomized into treatment groups of 8 mice per group including vehicle control and reference standard groups. The compounds were formulated in 60:30:10 PEG-400:D5W: Ethanol and administered p.o., at the dose volume of 10 ml/kg BID for a duration of 5 or 10 days. The dose used for efficacy was selected from the MTD (Maximum Tolerated Dose) study. Mice were weighed and tumors measured using vernier calipers every alternate day. Tumor volume was calculated according to the formula (length×width^2)/2. All animal work was approved by the Institutional Animal Care and Use Committee of Biological Resource Centre, Singapore.

| SMILES | IC50 (A2780 cells [1]) | IC50 (NAMPT) | effect on tumor growth in A2780 xenograft (A2780 cells [2]) |
| --- | --- | --- | --- |
| O=C(NCc1ccc2nccn2c1)Nc1ccc(S(=O)(=O)N2CCC(N3CCOCC3)CC2)cc1 [3-{imidazo[1,2-a]pyridin-6-ylmethyl}-1-{4-[4-(morpholin-4-yl)piperidine-1-sulfonyl]phenyl}urea] | 5 nM | 4 nM | delayed tumor growth |
| O=C(NCc1ccc2nccn2c1)Nc1ccc(S(=O)(=O)c2ccc(F)cc2)cc1 [1-{4-[(4-fluorobenzene)sulfonyl]phenyl}-3-{imidazo[1,2-a]pyridin-6-ylmethyl}urea] | 29 nM | 3 nM | tumor stasis; also recorded: delayed tumor growth |
| Cc1ccc(Cl)c(NS(=O)(=O)c2ccc(NC(=O)NCc3cccnc3)cc2)c1 [3-{4-[(2-chloro-5-methylphenyl)sulfamoyl]phenyl}-1-(pyridin-3-ylmethyl)urea] | 9 nM | 0.3 nM | delayed tumor growth |
| O=C(NCc1cccnc1)Nc1ccc(S(=O)(=O)c2ccccc2OC(F)(F)F)cc1 [1-(pyridin-3-ylmethyl)-3-(4-{[2-(trifluoromethoxy)benzene]sulfonyl}phenyl)urea] | 3 nM | 1 nM | tumor regression |
